{
  "source": "patent US20180104264A1",
  "about": "“Method for Preparing Lyophilized Organic Solvent-Free Cyclophosphamide” (KOREA UNITED PHARM. INC., priority 2016, published 2018)",
  "test": "Measurement of porosity (KOPTRI)",
  "format": "physicochemical",
  "source_text": "Porosity measurement for the samples prepared by the present applicant was requested from the Korea Polymer Testing & Research Institute (KOPTRI), an authorized international testing agency.",
  "data": [
    {"smiles": "O=P1(N(CCCl)CCCl)NCCCO1", "note": "(stereo not drawn) [Comparison 4, 2-[bis(2-chloroethyl)amino]tetrahydro-2H-1,3,2-oxazaphosphorin-2-oxide]", "values": [
      {"measurement": "Apparent density", "value": 1.31, "unit": "g/mL"},
      {"measurement": "Porosity", "value": 5.24, "unit": "%"},
      {"measurement": "Average diameter", "setting": "pore size", "value": 0.02, "unit": "μm"}
    ]}
  ]
}
